20 compounds from patent EP4755888A1 (ILAb Co., Ltd., priority 2023, dated 2025) can be followed below.

This test concerns the target PD-1/PD-L1 (Homo sapiens, UniProt Q9NZQ7). The test is described as follows: TR-FRET PD-1/PD-L1 binding inhibition at the molecular level (free proteins). The settings on record: Tag1-PD-L1 and Tag2-PD-1 proteins, twelve concentrations from 200 nM, 2 hours at room temperature, read-out: FRET assay (IC50). Summed up:
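HTRF read-out at 665/620 nm after 2 h at room temperature. Detection used anti-Tag1 Eu cryptate plus anti-Tag2 XL665 antibodies. Tagged PD-L1 and PD-1 proteins were pre-mixed with compound across twelve […] 1:2 dilutions starting at 200 nM.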

Bounds are passed on as bounds.

Sequence of PD-1/PD-L1 (Q9NZQ7 19-238 limits assumed): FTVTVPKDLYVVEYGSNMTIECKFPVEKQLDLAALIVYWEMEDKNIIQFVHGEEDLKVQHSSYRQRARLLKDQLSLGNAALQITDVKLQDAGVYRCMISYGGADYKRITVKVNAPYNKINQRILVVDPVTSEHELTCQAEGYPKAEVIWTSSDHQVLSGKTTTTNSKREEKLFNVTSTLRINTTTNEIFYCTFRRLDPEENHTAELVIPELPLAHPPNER

`O=C(Nc1cccc(-c2cccc(Nc3nc(C(F)(F)F)nc4cccnc34)c2Cl)c1Cl)c1cc2n(n1)CCC[C@@H]2N1CCC(C(=O)O)CC1` [Compound 273, (S)-1-(2-((2,2'-dichloro-3'-((2-(trifluoromethyl)pyrido[3,2-d]pyrimidin-4-yl)amino)-[1,1'-biphenyl]-3-yl)carbamoyl)-4,5,6,7-tetrahydropyrazolo[1,5-a]pyridin-4-yl)piperidine-4-carboxylic acid]: the IC50 lay in the range of 10 to 100 nM.

On to `O=C(Nc1cccc(-c2cccc(Nc3nc(C(F)(F)F)nc4cccnc34)c2Cl)c1Cl)c1cc2n(n1)CCC[C@H]2N1CCC(C(=O)O)CC1` [Compound 274, (R)-1-(2-((2,2'-dichloro-3'-((2-(trifluoromethyl)pyrido[3,2-d]pyrimidin-4-yl)amino)-[1,1'-biphenyl]-3-yl)carbamoyl)-4,5,6,7-tetrahydropyrazolo[1,5-a]pyridin-4-yl)piperidine-4-carboxylic acid], for which the IC50 fell in the range of 10 to 100 nM.

With `CC(C)(N[C@H]1CCCn2nc(C(=O)Nc3cccc(-c4cccc(Nc5nc(C(F)(F)F)nc6cccnc56)c4Cl)c3Cl)cc21)C(=O)O` [Compound 275, (S)-2-((2-((2,2'-dichloro-3'-((2-(trifluoromethyl)pyrido[3,2-d]pyrimidin-4-yl)amino)-[1,1'-biphenyl]-3-yl)carbamoyl)-4,5,6,7-tetrahydropyrazolo[1,5-a]pyridin-4-yl)amino)-2-methylpropanoic acid], the IC50 fell in the range of 10 to 100 nM.

For `CC(C)(N[C@@H]1CCCn2nc(C(=O)Nc3cccc(-c4cccc(Nc5nc(C(F)(F)F)nc6cccnc56)c4Cl)c3Cl)cc21)C(=O)O` [Compound 276, (R)-2-((2-((2,2'-dichloro-3'-((2-(trifluoromethyl)pyrido[3,2-d]pyrimidin-4-yl)amino)-[1,1'-biphenyl]-3-yl)carbamoyl)-4,5,6,7-tetrahydropyrazolo[1,5-a]pyridin-4-yl)amino)-2-methylpropanoic acid], the IC50 is less than 10 nM.

Regarding `O=C(Nc1cccc(-c2cccc(Nc3nc(C(F)(F)F)nc4cccnc34)c2Cl)c1Cl)c1cc2n(n1)CCC[C@@H]2N1CC(C(=O)O)C1` [Compound 277, (S)-1-(2-((2,2'-dichloro-3'-((2-(trifluoromethyl)pyrido[3,2-d]pyrimidin-4-yl)amino)-[1,1'-biphenyl]-3-yl)carbamoyl)-4,5,6,7-tetrahydropyrazolo[1,5-a]pyridin-4-yl)azetidine-3-carboxylic acid], the IC50 lay within 10 to 100 nM.

Take `O=C(Nc1cccc(-c2cccc(Nc3nc(C(F)(F)F)nc4cccnc34)c2Cl)c1Cl)c1cc2n(n1)CCC[C@H]2N1CC(C(=O)O)C1` [Compound 278, (R)-1-(2-((2,2'-dichloro-3'-((2-(trifluoromethyl)pyrido[3,2-d]pyrimidin-4-yl)amino)-[1,1'-biphenyl]-3-yl)carbamoyl)-4,5,6,7-tetrahydropyrazolo[1,5-a]pyridin-4-yl)azetidine-3-carboxylic acid]: the IC50 lay in the range of 10 to 100 nM.

With `Cc1nc(Nc2cccc(-c3cccc(NC(=O)c4cc5n(n4)CCC[C@@H]5NC(C)(C)C(=O)O)c3Cl)c2Cl)c2ncccc2n1` [Compound 279, (S)-2-((2-((2,2'-dichloro-3'-((2-methylpyrido[3,2-d]pyrimidin-4-yl)amino)-[1,1'-biphenyl]-3-yl)carbamoyl)-4,5,6,7-tetrahydropyrazolo[1,5-a]pyridin-4-yl)amino)-2-methylpropanoic acid], the IC50 was 10 to 100 nM.

For `Cc1nc(Nc2cccc(-c3cccc(NC(=O)c4cc5n(n4)CCC[C@H]5NC(C)(C)C(=O)O)c3Cl)c2Cl)c2ncccc2n1` [Compound 280, (R)-2-((2-((2,2'-dichloro-3'-((2-methylpyrido[3,2-d]pyrimidin-4-yl)amino)-[1,1'-biphenyl]-3-yl)carbamoyl)-4,5,6,7-tetrahydropyrazolo[1,5-a]pyridin-4-yl)amino)-2-methylpropanoic acid], the IC50 is less than 10 nM.

For the compound `Cc1nc(Nc2cccc(-c3cccc(NC(=O)c4cc5n(n4)CCC[C@@H]5N4CC(C(=O)O)C4)c3Cl)c2Cl)c2ncccc2n1` [Compound 281, (S)-1-(2-((2,2'-dichloro-3'-((2-methylpyrido[3,2-d]pyrimidin-4-yl)amino)-[1,1'-biphenyl]-3-yl)carbamoyl)-4,5,6,7-tetrahydropyrazolo[1,5-a]pyridin-4-yl)azetidine-3-carboxylic acid], the IC50 was less than 10 nM.

For `Cc1nc(Nc2cccc(-c3cccc(NC(=O)c4cc5n(n4)CCC[C@H]5N4CC(C(=O)O)C4)c3Cl)c2Cl)c2ncccc2n1` [Compound 282, (R)-1-(2-((2,2'-dichloro-3'-((2-methylpyrido[3,2-d]pyrimidin-4-yl)amino)-[1,1'-biphenyl]-3-yl)carbamoyl)-4,5,6,7-tetrahydropyrazolo[1,5-a]pyridin-4-yl)azetidine-3-carboxylic acid], the IC50 is less than 10 nM.

Consider `O=C(Nc1cccc(-c2cccc(Nc3nccc4cc(CN5CC(F)C5)cnc34)c2Cl)c1Cl)c1cc2n(n1)CCC[C@@H]2N1CCC(C(=O)O)CC1` [Compound 283, (S)-1-(2-((2,2'-dichloro-3'-((3-((3-fluoroazetidin-1-yl)methyl)-1,7-naphthyridin-8-yl)amino)-[1,1'-biphenyl]-3-yl)carbamoyl)-4,5,6,7-tetrahydropyrazolo[1,5-a]pyridin-4-yl)piperidine-4-carboxylic acid], for which the IC50 lay within 10 to 100 nM.

For `O=C(Nc1cccc(-c2cccc(Nc3nccc4cc(CN5CC(F)C5)cnc34)c2Cl)c1Cl)c1cc2n(n1)CCC[C@H]2N1CCC(C(=O)O)CC1` [Compound 284, (R)-1-(2-((2,2'-dichloro-3'-((3-((3-fluoroazetidin-1-yl)methyl)-1,7-naphthyridin-8-yl)amino)-[1,1'-biphenyl]-3-yl)carbamoyl)-4,5,6,7-tetrahydropyrazolo[1,5-a]pyridin-4-yl)piperidine-4-carboxylic acid], the IC50 was in the range of 10 to 100 nM.

With `Cc1c(NC(=O)c2cc3n(n2)CCC[C@@H]3N2CCC(O)CC2)cccc1-c1cccc(Nc2nc(C(F)(F)F)nc3cccnc23)c1C` [Compound 285, (S)-N-(2,2'-dimethyl-3'-((2-(trifluoromethyl)pyrido[3,2-d]pyrimidin-4-yl)amino)-[1,1'-biphenyl]-3-yl)-4-(4-hydroxypiperidin-1-yl)-4,5,6,7-tetrahydropyrazolo[1,5-a]pyridine-2-carboxamide], the IC50 fell in the range of 10 to 100 nM.

For `Cc1c(NC(=O)c2cc3n(n2)CCC[C@@H]3N2CCC(O)CC2)cccc1-c1cccc(Nc2nc(C(F)F)nc3cccnc23)c1C` [Compound 287, (S)-N-(3'-((2-(difluoromethyl)pyrido[3,2-d]pyrimidin-4-yl)amino)-2,2'-dimethyl-[1,1'-biphenyl]-3-yl)-4-(4-hydroxypiperidin-1-yl)-4,5,6,7-tetrahydropyrazolo[1,5-a]pyridine-2-carboxamide], the IC50 was in the range of 10 to 100 nM.

Consider `Cc1c(NC(=O)c2cc3n(n2)CCC[C@H]3N2CCC(O)CC2)cccc1-c1cccc(Nc2nc(C(F)F)nc3cccnc23)c1C` [Compound 288, (R)-N-(3'-((2-(difluoromethyl)pyrido[3,2-d]pyrimidin-4-yl)amino)-2,2'-dimethyl-[1,1'-biphenyl]-3-yl)-4-(4-hydroxypiperidin-1-yl)-4,5,6,7-tetrahydropyrazolo[1,5-a]pyridine-2-carboxamide], for which the IC50 was in the range of 10 to 100 nM.

As to `O=C(Nc1cccc(-c2cccc(Nc3nc(C(F)F)nc4cccnc34)c2Cl)c1Cl)c1cc2n(n1)CCC[C@@H]2N1CCC(C(=O)O)CC1` [Compound 289, (S)-1-(2-((2,2'-dichloro-3'-((2-(difluoromethyl)pyrido[3,2-d]pyrimidin-4-yl)amino)-[1,1'-biphenyl]-3-yl)carbamoyl)-4,5,6,7-tetrahydropyrazolo[1,5-a]pyridin-4-yl)piperidine-4-carboxylic acid], the 50% inhibitory concentration (IC50) was less than 10 nM.

As to `Cc1c(NC(=O)c2cc3n(n2)CCC[C@@H]3N2CCC(C(=O)O)CC2)cccc1-c1cccc(Nc2nc(C(F)F)nc3cccnc23)c1C` [Compound 291, (S)-1-(2-((3'-((2-(difluoromethyl)pyrido[3,2-d]pyrimidin-4-yl)amino)-2,2'-dimethyl-[1,1'-biphenyl]-3-yl)carbamoyl)-4,5,6,7-tetrahydropyrazolo[1,5-a]pyridin-4-yl)piperidine-4-carboxylic acid], the IC50 was in the range of 10 to 100 nM.

For the compound `Cc1c(NC(=O)c2cc3n(n2)CCC[C@H]3N2CCC(C(=O)O)CC2)cccc1-c1cccc(Nc2nc(C(F)F)nc3cccnc23)c1C` [Compound 292, (R)-1-(2-((3'-((2-(difluoromethyl)pyrido[3,2-d]pyrimidin-4-yl)amino)-2,2'-dimethyl-[1,1'-biphenyl]-3-yl)carbamoyl)-4,5,6,7-tetrahydropyrazolo[1,5-a]pyridin-4-yl)piperidine-4-carboxylic acid], the IC50 was less than 10 nM.

Turning to `O=C(O)CN[C@H]1CCCn2nc(C(=O)Nc3cccc(-c4cccc(Nc5nc(C(F)F)nc6cc(CN7CC[C@@H](O)C7)cnc56)c4Cl)c3Cl)cc21` [Compound 293, 2-(((S)-2-((2,2'-dichloro-3'-((2-(difluoromethyl)-7-(((R)-3-hydroxypyrrolidin-1-yl)methyl)pyrido[3,2-d]pyrimidin-4-yl)amino)-[1,1'-biphenyl]-3-yl)carbamoyl)-4,5,6,7-tetrahydropyrazolo[1,5-a]pyridin-4-yl)amino)acetic acid], the IC50 lay in the range of 10 to 100 nM.

Turning to `O=C(Nc1cccc(-c2cccc(Nc3nc(C(F)F)nc4cc(CN5CC[C@@H](O)C5)cnc34)c2Cl)c1Cl)c1cc2n(n1)CCC[C@@H]2N1CCC(O)CC1` [Compound 295, (S)-N-(2,2'-dichloro-3'-((2-(difluoromethyl)-7-(((R)-3-hydroxypyrrolidin-1-yl)methyl)pyrido[3,2-d]pyrimidin-4-yl)amino)-[1,1'-biphenyl]-3-yl)-4-(4-hydroxypiperidin-1-yl)-4,5,6,7-tetrahydropyrazolo[1,5-a]pyridine-2-carboxamide], the IC50 lay in the range of 10 to 100 nM.

Broadly, the IC50 is the concentration that inhibits the measured activity by half.
